# ChEMBL document CHEMBL3132815, “Design, synthesis and activities of 4/5-acyl-2-aminoimidazolyl analogues of oroidin for biofilm inhibition” (Medchemcomm, 2013)
# Legend:
# Pseudomonas aeruginosa [1] = experiment: Antibacterial activity against Pseudomonas aeruginosa PAO1 assessed as planktonic growth at 50 ug/ml; format: organism-based
# [2] = tested on: Staphylococcus epidermidis; experiment: Antibiofilm activity against Staphylococcus epidermidis 1457 assessed as inhibition of biofilm formation at 50 ug/ml; format: functional
# Staphylococcus aureus [3] = experiment: Antibacterial activity against methicillin-resistant Staphylococcus aureus 1094 assessed as planktonic growth at 50 ug/ml; format: organism-based
# Staphylococcus aureus [4] = experiment: Antibiofilm activity against methicillin-resistant Staphylococcus aureus assessed as inhibition of biofilm formation at 50 ug/ml; format: functional
# Staphylococcus aureus [5] = experiment: Antibiofilm activity against methicillin-resistant Staphylococcus aureus 1094 assessed as inhibition of biofilm formation at 50 ug/ml; format: functional
# [6] = tested on: Staphylococcus epidermidis; experiment: Antibiofilm activity against Staphylococcus epidermidis GTC 18972 assessed as inhibition of biofilm formation at 50 ug/ml; format: functional
# [7] = tested on: Staphylococcus epidermidis; experiment: Antibacterial activity against Staphylococcus epidermidis GTC 18972 assessed as planktonic growth at 50 ug/ml; format: organism-based
# Staphylococcus aureus [8] = experiment: Antibacterial activity against methicillin-resistant Staphylococcus aureus assessed as planktonic growth at 50 ug/ml; format: organism-based; settings: in vitro
# Staphylococcus aureus [9] = experiment: Antibiofilm activity against Staphylococcus aureus ATCC 35556 assessed as inhibition of biofilm formation at 50 ug/ml; format: functional
# [10] = tested on: Staphylococcus epidermidis; experiment: Antibacterial activity against Staphylococcus epidermidis 1457 assessed as planktonic growth at 50 ug/ml; format: organism-based
# Staphylococcus aureus [11] = experiment: Antibacterial activity against Staphylococcus aureus ATCC 35556 assessed as planktonic growth at 50 ug/ml; format: organism-based
# Pseudomonas aeruginosa [12] = experiment: Antibiofilm activity against Pseudomonas aeruginosa PAO1 assessed as inhibition of biofilm formation at 50 ug/ml; format: functional
# Pseudomonas aeruginosa [13] = experiment: Antibiofilm activity against Pseudomonas aeruginosa PAO1 assessed as inhibition of biofilm formation; format: functional, organism-based; settings: Pseudomonas aeruginosa, PAO1
SMILES,Activity (Pseudomonas aeruginosa [1]) [%],inhibition at 50 µg/mL [2] [%],Activity (Staphylococcus aureus [3]) [%],inhibition at 50 µg/mL (Staphylococcus aureus [4]) [%],inhibition at 50 µg/mL (Staphylococcus aureus [5]) [%],inhibition at 50 µg/mL [6] [%],Activity [7] [%],Activity (Staphylococcus aureus [8]) [%],inhibition at 50 µg/mL (Staphylococcus aureus [9]) [%],Activity [10] [%],Activity (Staphylococcus aureus [11]) [%],inhibition at 50 µg/mL (Pseudomonas aeruginosa [12]) [%],IC50 (Pseudomonas aeruginosa [13]) [µM]
O=C(NC/C=C/c1cnc2ncccn12)c1ccc[nH]1,14.6,22.8,-0.8,-61,47.8,45.9,0.1,5,16.4,-8.9,-11.5,-2.9,
O=C(NCC(=O)c1cnc2ncccn12)c1ccc[nH]1,3.14,7.6,20.67,-119,2.15,-6.61,17.02,3.76,-5.94,11.5,-4.75,14.3,
Cl.Cl.NCCC(=O)c1cnc2ncccn12,11.1,33,-0.9,-10.6,-1.8,4.2,5.5,-12.6,57.1,3.5,-3.3,-1.5,
O=C(NCC(O)c1cnc2ncccn12)c1cc(Br)c[nH]1 (stereo unspecified),-14.84,2.71,5.81,-127,22.5,-9.3,1.02,-6.08,-8.17,-2.26,4.97,17,
O=C(CN1C(=O)c2ccccc2C1=O)c1cnc2ncccn12,-0.69,6.4,21.51,-97.9,-67.5,8.1,29.67,3.76,-3.15,11.1,-6.07,-7.64,
O=C(NCC(O)c1cnc2ncccn12)c1ccc[nH]1 (stereo unspecified),-15.89,-1.26,10.52,16.9,-25.1,-16.8,11.45,0.95,-1.6,-3.27,6.67,13.2,
O=C(NCCC(=O)c1cnc2ncccn12)c1cc(Br)c[nH]1,-14.84,2.71,5.81,-127,22.5,-9.3,1.02,-6.08,-8.17,-2.26,4.97,17,
O=C(NCC(=O)c1cnc2ncccn12)c1cc(Br)c(Br)[nH]1,-15.25,6.17,18.43,-119,-13.9,-2.59,19.25,7.17,-5.8,13.8,-4.3,20.8,
O=C(NCCC(=O)c1cnc2ncccn12)c1cc(Br)c(Br)[nH]1,-13.02,4.48,6.37,-124,0.13,-9.35,15.9,-1.91,-4.41,9.93,-6.51,8.66,
O=C(NCCC(=O)c1cnc2ncccn12)c1ccc[nH]1,-15.89,1.26,10.52,16.9,-25.1,-16.7,11.45,0.95,-1.6,-3.27,6.67,13.2,
O=C(NC/C=C/c1cnc2ncccn12)c1cc(Br)c[nH]1,-19.9,14,-8.7,-108,36,-1.8,-3.1,-16.4,-5.5,-24,8.6,2.1,
Cl.Cl.NCC(=O)c1cnc2ncccn12,28.8,0.9,2,4.3,-30.2,28.7,6.4,7.8,-5.1,-0.6,6.2,5.6,
Nc1nc(C(=O)CCNC(=O)c2cc(Br)c(Br)[nH]2)c[nH]1,6.46,17.8,21.91,28.3,-66,33.8,9.62,1.56,-0.94,-13.68,-4.22,4.13,60
O=C(NCC(O)c1cnc2ncccn12)c1cc(Br)c(Br)[nH]1 (stereo unspecified),-13.02,4.48,6.37,-124,0.13,-9.35,15.9,-1.91,-4.41,9.93,-6.51,8.66,
O=C(NCC(=O)c1cnc2ncccn12)c1cc(Br)c[nH]1,-6.55,7.83,16.74,-124,7.07,-9.93,19.25,-6.08,-8.17,13.47,-3.86,27.4,
O=C(NCCC(O)c1cnc2ncccn12)c1cc(Br)c(Br)[nH]1 (stereo unspecified),14.1,19.6,-0.8,-20.9,26.2,-33.1,14.8,-5.1,-2.2,10.2,2.9,-1.4,
O=C(NC/C=C/c1cnc2ncccn12)c1cc(Br)c(Br)[nH]1,11.6,18.3,-0.5,-9.7,38.9,-16.6,9.1,-6.1,-0.4,7.8,3.3,-1.7,
O=C(CCN1C(=O)c2ccccc2C1=O)c1cnc2ncccn12,-16.12,10.6,15.94,18.7,-53.2,-11,23.58,10.43,6.92,15.13,2.31,23,
O=C(NCCC(O)c1cnc2ncccn12)c1ccc[nH]1 (stereo unspecified),-19.1,9.6,-7.9,-5.1,26.8,18.1,1,6.1,-6.5,0.7,3.3,3.9,
O=C(NCCC(O)c1cnc2ncccn12)c1cc(Br)c[nH]1 (stereo unspecified),17.1,2.6,17.3,8,34.3,-14.1,6.5,15.4,2.2,2.9,4.7,1.9,
